Source: patent US9259001B2, “5-phenyl-substituted N-(tetrazol-5-yl) aryl carboxylic acid amides and N-(triazol-5-yl) aryl carboxylic acid amides, and use thereof as herbicides” (BAYER INTELLECTUAL PROPERTY GMBH, priority 2011, dated 2016)

Legend:
Assay in all cases: Comparative tests by the post-emergence method
Type in all cases: in vivo
Abutilon theophrasti = test system: Abutilon theophrasti
Method: (§1) Seeds of monocotyledonous and dicotyledonous weed and crop plants are placed in sandy loam in wood-fiber pots, covered with soil and cultivated in a greenhouse under good growth conditions. 2 to 3 weeks after sowing, the test plants are treated at the one-leaf stage. The inventive compounds formulated in the form of wettable powders (WP) or as emulsion concentrates (EC) are then sprayed onto the green parts of the plants as an aqueous suspension or emulsion at a water application rate of 600 to 800 I/ha (converted) with addition of 0.2% wetting agent. After the test plants have been left to stand in the greenhouse under optimal growth conditions for about 3 weeks, the action of the formulations is assessed visually in comparison to untreated controls (herbicidal action in percent (%): 100% activity=the plants have died, 0% activity=like control plants). Here, the compounds Nos. 1-02, 1-03, 1-05, 1-06, 1-14, 1-15, 2-01, 2-02, 2-03, 2-04, 2-05, 2-06, 2-16, 2-17, 2-18, 2-19, 2-20, 2-21, 2-22, 2-23, 2-24, 2-25, 2-26, 2-27, 2-28, 2-29, 2-30, 2-31, 2-33, 2-34, 2-35, 2-39, 2-40, 2-41, 2-43, 2-44, 2-45, 2-46, 2-47, 2-48, 2-49, 2-50, 2-51, 2-52, 2-53, 2-60, 2-61, 2-62, 2-63, 2-64, 2-65, 2-69 and 2-83 each show, at an application rate of 80 g/ha, an activity of at least 80% against Abutilon theophrasti and Veronica persica. The compounds Nos. 1-14, 2-32, 2-42, 2-66, 2-67, 2-69 and 2-83, at an application rate of 80 g/ha, each show an activity of at least 80% against Amaranthus retroflexus and Stellaria media.
(§2) For comparative tests, the compound No. 1-15 according to the invention and the compounds No. 118 and No. 119 known from EP 0 049 071 A1 were tested by the post-emergence method at various dosages against a number of harmful plants.
(§3) ABUTH Abutilon theophrasti PHBPU Pharbitis purpureum

Pharbitis purpureum = test system: Pharbitis purpureum
Method: as §1, §2, §3

Veronica persica = test system: Veronica persica
Method: as §1, §2

Structure (SMILES) | Herbicidal action against ABUTH (Abutilon theophrasti; dosage 5 g/ha) [%] | Herbicidal action against ABUTH (Abutilon theophrasti; dosage 20 g/ha) [%] | Herbicidal action against ABUTH (Abutilon theophrasti; dosage 80 g/ha) [%] | Herbicidal action against PHBPU (Pharbitis purpureum; dosage 5 g/ha) [%] | Herbicidal action against PHBPU (Pharbitis purpureum; dosage 20 g/ha) [%] | Herbicidal action against PHBPU (Pharbitis purpureum; dosage 80 g/ha) [%] | Herbicidal action against VERPE (Veronica persica; dosage 5 g/ha) [%] | Herbicidal action against VERPE (Veronica persica; dosage 20 g/ha) [%] | Herbicidal action against VERPE (Veronica persica; dosage 80 g/ha) [%]
Cc1cc(C(=O)Nc2ncnn2C)c(Cl)cc1S(C)(=O)=O [No. 1-15] | 90 | 90 | 90 | 80 | 80 | 80 | 40 | 80 | 80
COc1cccc(OC)c1C(=O)Nc1nc[nH]n1 [Compound No. 119, N-(1H-1,2,4-triazol-3-yl)-2,6-dimethoxybenzamide] | 0 | 0 | 0 | 0 | 0 | 0 | 0 | 0 | 0
CCC(C)(CC)c1nnc(NC(=O)c2c(OC)cccc2OC)[nH]1 [Compound No. 118, N-[5-(1-ethyl-1-methylpropyl)-4H-1,2,4-triazol-3-yl]-2,6-dimethoxybenzamide] | 0 | 0 | 0 | 0 | 0 | 0 | 0 | 0 | 0
